Publication PMC4231793 (Biology of blood and marrow transplantation : journal of …, 2012)
“And” between values parts separate entries of the source, which are not always exact repeats. Equal values may be shown once. Read-outs that look alike come from different tables or passages of the source. Blank lines part the entries; values can stand above or below the compound they belong to.

Tests used:
CYP3A4 = conditions: compared with itraconazole, voriconazole, and posaconazole; ref [7],[23]; cited from earlier work
[1] = Noncompartmental pharmacokinetic analysis of whole-blood sirolimus; assay type: in vivo, human; conditions: for concentration at 0 h: Co (trough concentration prior to oral dosing)
[2] = Population pharmacokinetic analysis; assay type: in vivo, human
[3] = assay type: in vivo, human
[4] = cited from earlier work; for AUC0–24: ref [9],[14]; for Half-life: ref [9]; for t1/2: pediatric renal transplant patients, every-12-hour schedule, calcineurin inhibitor-free protocol, ref [8]
[5] = ref [10], cited from earlier work
[6] = human, whole blood, oral, 2.5 mg/m^2/day
[7] = patients receiving concomitant fluconazole (i.v. or oral)
[8] = population estimate ± standard error
[9] = at 180 days, sirolimus, tacrolimus and methotrexate GVHD prophylaxis
[10] = of 63 subjects in the clinical study, sirolimus with tacrolimus

SMILES: OC(Cn1cncn1)(Cn1cncn1)c1ccc(F)cc1F [Fluconazole]
In vitro CYP3A4 inhibition, rank among azoles (CYP3A4): weakest in vitro inhibitor of CYP3A4

concentration at 24 h ([1]; human, whole blood, iv, 2.5 mg/m^2/day, C24 trough concentration, patients who developed grade III–IV aGVHD (n = 10), mean ± SD): 6.1 ± 2.9 ng/mL
AUC(0-t) [1, 6]: 401 ± 316 ng·h/mL
CL/F [1, 6]: 3.17 mL/min/kg
Tmax [1, 6]: 3.3 ± 1.6 h
Vd/F [1, 6]: 5.78 ± 5.7 L/kg
concentration at 24 h ([1]; human, whole blood, oral, 2.5 mg/m^2/day, C24 (trough concentration at 24 hours after oral dosing), i.v. Fluconazole (n = 16), mean ± SD (range)): 10 ng/mL
concentration at 24 h ([1]; human, whole blood, oral, 2.5 mg/m^2/day, C24 trough concentration, patients with grade 0-II aGVHD (n = 22), mean ± SD): 9.4 ± 5.5 ng/mL
concentration at 0 h ([1]; human, whole blood, oral, 2.5 mg/m^2/day, i.v. Fluconazole (n = 16), mean ± SD (range)): 8 ng/mL
Half-life ([1]; human, whole blood, oral, 2.5 mg/m^2/day, Mean t1/2, patients age ≤12 years): 21.8 h
concentration at 24 h ([1]; human, whole blood, po, 2.5 mg/m^2/day, C24 (trough concentration at 24 hours after oral dosing), All (n = 33), mean ± SD (range)): 9.1 ± 5.3 ng/mL
concentration at 24 h ([1]; human, whole blood, po, 2.5 mg/m^2/day, C24 (trough concentration at 24 hours after oral dosing), No Fluconazole (n = 11), mean ± SD (range)): 8 ng/mL
concentration at 24 h ([1]; human, whole blood, po, 2.5 mg/m^2/day, C24 (trough concentration at 24 hours after oral dosing), Oral Fluconazole (n = 6), mean ± SD (range)): 8.6 ng/mL
concentration at 0 h ([1]; human, whole blood, po, 2.5 mg/m^2/day, All (n = 33), mean ± SD (range)): 8 ± 4.6 ng/mL
concentration at 0 h ([1]; human, whole blood, po, 2.5 mg/m^2/day, No Fluconazole (n = 11), mean ± SD (range)): 6.8 ng/mL
concentration at 0 h ([1]; human, whole blood, po, 2.5 mg/m^2/day, Oral Fluconazole (n = 6), mean ± SD (range)): 11 ng/mL
Difference between trough concentrations (C24 - C0)/C24, average ([1]; n = 33, not significantly greater than 0 (P = .75)): 10.3%
C24 trough concentration ([1]; patients who developed grade III–IV aGVHD (n = 10), mean ± SD): 6.11 ± 2.89 ng/mL
C24 trough concentration ([1]; patients with grade 0-II aGVHD (n = 22), mean ± SD): 9.42 ± 5.52 ng/mL
Clearance (Cl/F), population estimate ([2]; 37 patients, 333 concentrations, estimate ± standard error): 6.66 ± 1.10 L/h
CL/F [2, 6]: 2.83 mL/min/kg
Vd [2, 6]: 26.9 ± 7.7 L
Absorption rate constant (ka) [2, 8]: 0.0535 ± 0.0104 h⁻¹
Intercompartment clearance (Q) [2, 8]: 4.62 ± 2.00 L/h
Volume of distribution of peripheral compartment (Vp) [2, 8]: 630 ± 171 L
Share of sirolimus whole-blood concentrations >12 ng/mL ([3]; above target range): 12%
Share of sirolimus whole-blood concentrations <3 ng/mL ([3]; below target range): 9%
Share of sirolimus whole-blood (trough) concentrations within target range ([3]; target range 3–12 ng/mL, with therapeutic drug monitoring): 79%
SMILES: CO[C@H]1C[C@@H]2CC[C@@H](C)[C@@](O)(O2)C(=O)C(=O)N2CCCC[C@H]2C(=O)O[C@H]([C@H](C)C[C@@H]2CC[C@@H](O)[C@H](OC)C2)CC(=O)[C@H](C)/C=C(\C)[C@@H](O)[C@@H](OC)C(=O)[C@H](C)C[C@H](C)/C=C/C=C/C=C/1C [sirolimus, Sirolimus]
Dose-normalized C24 ([1]; patients not receiving fluconazole): 2.5 ± 1.7 ng/mL/mg and 2.51 ± 1.72 ng/mL/mg
Dose-normalized C0 [1, 7]: 3.9 ± 2.5 ng/mL/mg and 3.93 ± 2.5 ng/mL/mg
Dose-normalized C24 [1, 7]: 4.8 ± 3.3 ng/mL/mg and 4.8 ± 3.34 ng/mL/mg
AUC0–24 ([4]; adult kidney transplant recipients): 173 ± 50 ng·h/mL
Half-life ([4]; pediatric liver transplant recipients on sirolimus and tacrolimus): 21.2 ± 14.1 h
AUC0–24 ([4]; pediatric liver transplant recipients): 168.3 ± 86.5 ng·h/mL
t1/2 ([4]; 1 month posttransplantation): 9.7 h
t1/2 ([4]; 3 months posttransplantation): 10.8 h
AUC0–24 ([4]; pediatric small bowel transplant recipients): 177.4 ± 72.1 ng·h/mL
Half-life ([4]; small bowel transplant recipients on sirolimus and tacrolimus): 19.3 ± 5.6 h
Cumulative incidence of grade III–IV aGVHD [5, 9]: 21%
Cumulative incidence of grade II–IV aGVHD [5, 9]: 38%
Subjects who developed thrombotic microangiopathy [5, 10]: 3 subjects
Subjects who developed veno-occlusive disease of liver [5, 10]: 7 subjects
